# Measured values: patent publication US8629102B2, “3-hydroxyisothiazole 1-oxide derivatives” (Mochida Pharmaceutical Co., Ltd., priority 2011, dated 2014)
# Biological target: T1, GPR40 of human origin (Homo sapiens, UniProt O14842)
# T1 construct: expressed in transfected cells
# Experiment: Agonist action on GPR40 of human origin (intracellular Ca2+ change)
# Type: cell-based
# Details: CHO cell strain stably expressing GPR40 of human origin; change in Ca2+ concentration, fluorescent calcium indicator
# Summary of the method: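 CHO cells stably expressing human GPR40, cultured overnight, then loaded 1 h with Calcium 4 dye plus probenecid in HEPES-buffered HBSS. Compound added in 20 mM HEPES-HBSS; intracellular Ca2+ change read by fluorescence, EC50 from dose-response of fluorescence change.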
# T1 sequence (O14842 whole entry): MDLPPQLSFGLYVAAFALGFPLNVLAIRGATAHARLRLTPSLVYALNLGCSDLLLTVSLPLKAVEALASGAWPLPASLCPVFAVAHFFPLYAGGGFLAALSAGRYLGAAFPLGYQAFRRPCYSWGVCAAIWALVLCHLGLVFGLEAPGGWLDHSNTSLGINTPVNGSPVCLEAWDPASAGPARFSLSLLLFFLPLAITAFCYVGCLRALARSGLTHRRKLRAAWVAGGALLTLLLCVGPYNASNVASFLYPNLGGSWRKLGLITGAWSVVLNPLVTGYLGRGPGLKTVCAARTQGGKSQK
row,EC50 [nM],SMILES
1,< 300,"N#Cc1ccc(Oc2cccc(COc3ccc(-c4cc(O)n[s+]4[O-])cc3)c2)cc1 (stereo not shown) [Example 125, 4-(3-((4-(3-hydroxy-1-oxidoisothiazol-5-yl)phenoxy)methyl)phenoxy)benzonitrile]"
2,< 300,"[O-][s+]1nc(O)cc1-c1ccc(O[C@@H]2CCc3c(-c4ccccc4OCc4ccccc4)cccc32)cc1 (stereo partly drawn) [Example 42, 5-(4-(((R)-4-(2-benzyloxyphenyl)-2,3-dihydro-1H-inden-1-yl)oxy)phenyl)-3-hydroxyisothiazole 1-oxide]"
3,< 300,"[O-][s+]1nc(O)cc1-c1ccc(O[C@@H]2CCc3c(Oc4ccc(N5CCOCC5)nc4)cccc32)cc1 (stereo partly drawn) [Example 109, 3-hydroxy-5-(4-(((R)-4-((6-morpholinopyridin-3-yl)oxy)-2,3-dihydro-1H-inden-1-yl)oxy)phenyl)isothiazole 1-oxide]"
4,< 300,"[O-][s+]1nc(O)cc1-c1ccc(O[C@@H]2CCc3c(-c4cc(F)ccc4C(F)(F)F)cccc32)cc1 (stereo partly drawn) [Example 66, 5-(4-(((R)-4-(5-fluoro-2-trifluoromethylphenyl)-2,3-dihydro-1H-inden-1-yl)oxy)phenyl)-3-hydroxyisothiazole 1-oxide]"
5,< 300,"[O-][s+]1nc(O)cc1-c1ccc(O[C@@H]2CCc3c(Oc4ccccc4)cccc32)cc1 (stereo partly drawn) [Example 90, 3-hydroxy-5-(4-(((R)-4-phenoxy-2,3-dihydro-1H-inden-1-yl)oxy)phenyl)isothiazole 1-oxide]"
6,< 300,"Cc1cc(OCc2ccccc2)ccc1-c1cccc2c1CC[C@H]2Oc1ccc(-c2cc(O)n[s+]2[O-])cc1 (stereo partly drawn) [Example 47, 5-(4-(((R)-4-(4-benzyloxy-2-methylphenyl)-2,3-dihydro-1H-inden-1-yl)oxy)phenyl)-3-hydroxyisothiazole 1-oxide]"
7,< 300,"[O-][s+]1nc(O)cc1-c1ccc(O[C@@H]2CCc3c(Oc4ccc(OC(F)(F)F)cc4)cccc32)cc1 (stereo partly drawn) [Example 103, 3-hydroxy-5-(4-(((R)-4-(4-(trifluoromethoxy)phenoxy)-2,3-dihydro-1H-inden-1-yl)oxy)phenyl)isothiazole 1-oxide]"
